Values of other authors, collected in patent US20080260864A1, “Topical Compositions for the Treatment of Depilation-Induced Irritation or Prevention Thereof” (MEDIDERMIS LTD., priority 2005, published 2008).

System: skin / tissue
[1] = Hawley's Condensed Chemical Dictionary

effect of repeated applications (UpToDate drug information) | Structure (SMILES) | irritancy to tissue [1] | toxicity by ingestion [1] | skin irritation (The Merck Index)
– | [Al+3].[Cl-].[Cl-].[Cl-] [Anhydrous aluminium chloride, Aluminium chloride anhydrous] | powerful irritant | moderately toxic | –
may cause contact dermatitis | S1SSSSSSS1 [Sulfur] | – | – | may cause skin irritation
